# From the supplement of paper PMC10307832
# Tests used:
# Test in all cases: relative viability (nuclei count vs DMSO), 5 days (fraction); higher = more cells survive
# AZ505 + Crizotinib = compound: C1CCC(CC1)N(CCNCCC2=C3C(=C(C=C2)O)NC(=O)CO3)C(=O)CCNCCC4=CC(=C(C=C4)Cl)Cl [AZ505] + C[C@@H](Oc1cc(-c2cnn(C3CCNCC3)c2)cnc1N)c1c(Cl)ccc(F)c1Cl [Crizotinib] (partner 1 µM)
# Procedure, shortened: (§1)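 Each reported value is a median over duplicate plates. It expresses relative viability: treated-well nuclei count divided by vehicle-well nuclei count. Lung cancer cell lines in 1536-well plates were dosed by pin tool a day after seeding, alone with one drug or with a fixed anchor-drug dose plus five library-drug doses (not always all listed) in √10 steps, and nuclei were counted after 5 days.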
# Dactolisib + Tozasertib = compound: Cn1c(=O)n(-c2ccc(C(C)(C)C#N)cc2)c2c3cc(-c4cnc5ccccc5c4)ccc3ncc21 [Dactolisib] + Cc1cc(Nc2cc(N3CCN(C)CC3)nc(Sc3ccc(NC(=O)C4CC4)cc3)n2)n[nH]1 [Tozasertib] (partner 0.1 µM)
# Procedure, shortened: as §1
# AZ505 + Decitabine = compound: C1CCC(CC1)N(CCNCCC2=C3C(=C(C=C2)O)NC(=O)CO3)C(=O)CCNCCC4=CC(=C(C=C4)Cl)Cl [AZ505] + Nc1ncn([C@H]2C[C@H](O)[C@@H](CO)O2)c(=O)n1 [Decitabine] (partner 2 µM)
# Procedure, shortened: as §1
# Dactolisib + Vorinostat = compound: Cn1c(=O)n(-c2ccc(C(C)(C)C#N)cc2)c2c3cc(-c4cnc5ccccc5c4)ccc3ncc21 [Dactolisib] + O=C(CCCCCCC(=O)Nc1ccccc1)NO [Vorinostat] (partner 1 µM)
# Procedure, shortened: as §1
Cell Line,relative viability (AZ505 + Crizotinib; first compound 0.08 µM),relative viability (AZ505 + Crizotinib; first compound 0.253 µM),relative viability (AZ505 + Crizotinib; first compound 0.8 µM),relative viability (AZ505 + Crizotinib; first compound 2.53 µM),relative viability (AZ505 + Crizotinib; first compound 8 µM),relative viability (Dactolisib + Tozasertib; first compound 0.002 µM),relative viability (Dactolisib + Tozasertib; first compound 0.006325 µM),relative viability (Dactolisib + Tozasertib; first compound 0.02 µM),relative viability (Dactolisib + Tozasertib; first compound 0.06325 µM),relative viability (Dactolisib + Tozasertib; first compound 0.2 µM),relative viability (AZ505 + Decitabine; first compound 0.08 µM),relative viability (AZ505 + Decitabine; first compound 0.253 µM),relative viability (AZ505 + Decitabine; first compound 0.8 µM),relative viability (AZ505 + Decitabine; first compound 2.53 µM),relative viability (AZ505 + Decitabine; first compound 8 µM),relative viability (Dactolisib + Vorinostat; first compound 0.002 µM),relative viability (Dactolisib + Vorinostat; first compound 0.006325 µM),relative viability (Dactolisib + Vorinostat; first compound 0.02 µM),relative viability (Dactolisib + Vorinostat; first compound 0.06325 µM),relative viability (Dactolisib + Vorinostat; first compound 0.2 µM)
BEN,0.789,0.889,0.854,0.816,1.07,0.525,0.553,0.53,0.49,0.42,0.714,0.655,0.752,0.768,0.78,0.555,0.577,0.562,0.478,0.383
NCI-H1666,0.903,1.03,0.96,0.997,0.954,0.742,0.614,0.667,0.526,0.614,0.69,0.667,0.752,0.659,0.694,1.09,0.977,0.969,0.922,0.87
LC-2-ad,0.432,0.475,0.438,0.472,0.427,0.454,0.412,0.43,0.363,0.333,0.797,0.835,0.776,0.776,0.841,0.857,0.699,0.749,0.524,0.496
SW 1573,0.878,0.868,0.927,0.733,0.886,0.153,0.2,0.232,0.154,0.0965,0.517,0.63,0.569,0.476,0.501,0.571,0.588,0.627,0.243,0.25
ChaGo-K-1,1.17,1.04,1.12,0.958,1.15,0.248,0.235,0.221,0.223,0.211,0.51,0.529,0.478,0.541,0.517,0.724,0.821,0.719,0.623,0.757
COR-L 105,0.579,0.964,0.75,0.963,0.793,0.413,0.401,0.35,0.361,0.289,0.375,0.653,0.591,0.637,0.729,0.677,0.88,0.828,0.402,0.394
NCI-H1975,0.891,0.994,0.902,0.836,0.995,0.753,0.724,0.578,0.267,0.138,0.345,0.355,0.407,0.322,0.403,0.788,0.622,0.575,0.429,0.266
NCI-H1993,0.928,0.85,0.766,1.03,0.798,0.584,0.581,0.504,0.495,0.502,0.595,0.602,0.575,0.617,0.594,0.849,0.54,0.537,0.481,0.284
RERF-LC-KJ,0.769,0.848,0.774,0.842,0.833,0.535,0.551,0.599,0.279,0.397,0.719,0.664,0.757,0.78,0.567,0.683,0.699,0.707,0.452,0.542
NCI-H23,0.502,–,0.443,0.638,0.557,0.346,0.399,0.318,0.208,0.178,0.284,0.326,0.327,0.306,0.311,0.512,0.49,0.462,0.18,0.176
HCC-366,0.418,0.365,0.551,0.396,0.534,0.11,0.101,0.0652,0.0776,0.0308,0.342,0.344,0.316,0.316,0.341,0.285,0.407,0.325,0.0887,0.0549
EMC-BAC-2,0.791,0.911,0.698,0.735,0.761,0.266,0.271,0.334,0.287,0.273,0.938,–,0.862,0.924,0.943,0.492,0.442,0.353,0.266,0.219
NCI-H2405,0.634,0.596,0.586,0.565,0.63,0.79,0.826,0.85,0.527,0.44,0.605,–,0.702,0.703,0.647,1.09,1.02,0.839,0.391,0.277
